Source: patent US20260001893A1, “SMALL MOLECULE MODULATORS OF STAT6” (Gilead Sciences, Inc., priority 2024, published 2026)
pEC50: −log10 of the molar value.

The compounds below were run on Eotaxin-3 (CCL26) release in human whole blood stimulated with IL-4 (assay: Human whole blood eotaxin-3 assay (IL-4 stimulated eotaxin-3 release)). Conditions: Homo sapiens, 48 h, human whole blood stimulated with recombinant human IL-4, 48 h; given for test compounds with <80% Emax; geometric mean.
Format: cell-based
Procedure: Human Whole Blood Eotaxin-3 Assay
This was a human whole blood assay using recombinant human Interleukin 4 to stimulate the blood and measuring the ability of the test compounds to inhibit eotaxin-3 release. The biological activities of the test compounds have been tested in human whole blood stimulated with IL-4 measuring Eotaxin-3 release. The test compounds were added to 384 well clear flat-bottom plate in a 4-fold serial dilution in triplicates using a liquid handler. Human whole blood stabilized in lithium-heparin tubes was added in a volume of 65 μL per well, resulting in a final DMSO concentration of 0.5%. The plate is incubated for 2 h at 37° C. under 5% CO2/95% air. Subsequently, 5 μL of recombinant human IL-4 (R&D Systems, cat #204-ILB) was added to the wells to a final concentration of […]. The plate was incubated for 48 h at 37° C. under 5% CO2/95% air. The plate was spun down for 10 minutes at 500×g and 20 μL supernatant was harvested and transferred to a 384 well v-bottom plate using a liquid handler and stored at −20° C. until further analysis. 10 μL supernatant was used to measure the level of Eotaxin-3 (CCL26) using Human Eotaxin-3 MSD kit from Mesocsale (Cat #K251UEK-4). The assay was performed according to the manufacture instructions.
The data from the human whole blood eotaxin-3 assay is shown below for Examples 1ab3, 1ab6, 1d23, and 1d4 (where the effect in % is plotted against the test concentration in M on a log-scale).
Compound CN(C)C(=O)c1ccc(C2=CCN(Cc3cc4c(-n5ccc6c(c5=O)CCN6)ccnc4n3C)CC2)cc1F [Example 1m83, 2-fluoro-N,N-dimethyl-4-(1-((1-methyl-4-(4-oxo-1,2,3,4-tetrahydro-5H-pyrrolo[3,2-c]pyridin-5-yl)-1H-pyrrolo[2,3-b]pyridin-2-yl)methyl)-1,2,3,6-tetrahydropyridin-4-yl)benzamide] has an Emax of 30 to 40%. In the case of CNc1ccn(-c2ccnc3c2cc(CN2CC[C@@H](c4ccc(C(=O)N(C)C)cc4)C[C@@H]2C)n3C)c(=O)c1 (single isomer, unassigned) [Example 1d40], the Emax was < 20%. Cc1cc(C(=O)N(C)C)nnc1C1=CCN(Cc2cc3c(-n4ccc5c(c4=O)CCN5)ccnc3n2C)CC1 [Example 1m81, N,N,5-trimethyl-6-(1-((1-methyl-4-(4-oxo-1,2,3,4-tetrahydro-5H-pyrrolo[3,2-c]pyridin-5-yl)-1H-pyrrolo[2,3-b]pyridin-2-yl)methyl)-1,2,3,6-tetrahydropyridin-4-yl)pyridazine-3-carboxamide] showed an Emax of 30 to 40%. With CNc1ccn(-c2ccnc3c2cc([C@H](C)N2CC=C(c4c(C)cc(C(=O)N(C)C)nc4C)CC2)n3C)c(=O)c1 (single isomer, unassigned) [Example 1m99] the Emax was < 20%.

Same assay, conditions: Homo sapiens, 48 h, human whole blood stimulated with recombinant human IL-4, 48 h; inhibition of eotaxin-3 release; given for test compounds with >80% Emax; geometric mean
Work on CNc1ccn(-c2ccnc3[nH]c(C(C)N4CC=C(c5c(C)cc(C(=O)N(C)C)cc5F)CC4)cc23)c(=O)c1 (stereo not drawn) [Example 1m85, 3-fluoro-N,N,5-trimethyl-4-(1-(1-(4-(4-(methylamino)-2-oxopyridin-1 (2H)-yl)-1H-pyrrolo[2,3-b]pyridin-2-yl)ethyl)-1,2,3,6-tetrahydropyridin-4-yl)benzamide] yielded a pEC50 of 6.89. For CNc1ccn(-c2ccnc3c2cc(CN2CCC(c4ccc(C(=O)N(C)C)cc4Cl)CC2)n3C)c(=O)c1 [Example 1d37, 3-Chloro-N,N-dimethyl-4-[1-[[1-methyl-4-[4-(methylamino)-2-oxo-1-pyridyl]pyrrolo[2,3-b]pyridin-2-yl]methyl]-4-piperidyl]benzamide], the pEC50 was 6.83. Compound [2H]C([2H])([2H])N(C(=O)c1cc(C)c(C2=CCN(Cc3cc4c(-n5ccc(N)c(C)c5=O)ccnc4n3C)CC2)c(F)c1)C([2H])([2H])[2H] [Example 1m94, 4-(1-((4-(4-amino-3-methyl-2-oxopyridin-1 (2H)-yl)-1-methyl-1H-pyrrolo[2,3-b]-pyridin-2-yl)methyl)-1,2,3,6-tetrahydropyridin-4-yl)-3-fluoro-5-methyl-N,N-bis(methyl-d3)benzamide] has a pEC50 of 8.18. With [2H]C([2H])([2H])N(C(=O)c1cc(C)c(C2=CCN(Cc3cc4c(-n5ccc(NC)c(C)c5=O)ccnc4n3C)CC2)c(F)c1)C([2H])([2H])[2H] [Example 1m114, 3-fluoro-5-methyl-N,N-bis(methyl-d3)-4-(1-((1-methyl-4-(3-methyl-4-(methylamino)-2-oxopyridin-1 (2H)-yl)-1H-pyrrolo[2,3-b]pyridin-2-yl)methyl)-1,2,3,6-tetrahydropyridin-4-yl)-benzamide] the pEC50 was 6.73. In the case of CNc1ccn(-c2ccnc3c2cc([C@H](C)N2CCC(c4c(C)cc(C(=O)N(C)C)cc4F)CC2)n3C)c(=O)c1 [Example 1m109, (S)-3-fluoro-N,N,5-trimethyl-4-(1-(1-(1-methyl-4-(4-(methylamino)-2-oxopyridin-1 (2H)-yl)-1H-pyrrolo[2,3-b]pyridin-2-yl)ethyl)piperidin-4-yl)benzamide], the pEC50 was 7.97. For CNc1c(F)cn(-c2ccnc3c2cc(CN2CCC(c4c(F)cc(C(=O)N(C)C)cc4F)CC2)n3C)c(=O)c1F [Example 1m136, 4-(1-((4-(3,5-difluoro-4-(methylamino)-2-oxopyridin-1 (2H)-yl)-1-methyl-1H-pyrrolo[2,3-b]pyridin-2-yl)methyl)piperidin-4-yl)-3,5-difluoro-N,N-dimethylbenzamide], the pEC50 was 7.32. With [2H]C([2H])([2H])N(C(=O)c1ccc(C2CCN([C@@H](C)c3cc4c(-n5cc(F)c(N)nc5=O)ccnc4n3C)CC2)cc1)C([2H])([2H])[2H] [Example 1m80, (S)-4-(1-(1-(4-(4-amino-5-fluoro-2-oxopyrimidin-1 (2H)-yl)-1-methyl-1H-pyrrolo[2,3-b]pyridin-2-yl)ethyl)piperidin-4-yl)-N,N-bis(methyl-d3)benzamide] the pEC50 was 6.88. Work on CNc1ccn(-c2ccnc3c2cc(CN2CC=C(c4c(C)cc(C(=O)N(C)C)cc4Cl)CC2)n3C)c(=O)c1 [Example 1m57, 3-Chloro-N,N,5-trimethyl-4-(1-((1-methyl-4-(4-(methylamino)-2-oxopyridin-1 (2H)-yl)-1H-pyrrolo[2,3-b]pyridin-2-yl)methyl)-1,2,3,6-tetrahydropyridin-4-yl)benzamide] yielded a pEC50 of 7.57. Work on CNc1ccn(-c2ccnc3c2cc([C@@H](C)N2CC[C@@H](c4c(C)cc(C(=O)N(C)C)cc4F)C(F)(F)C2)n3C)c(=O)c1 (single isomer, unassigned) [Example 1m143] yielded a pEC50 of 6.07. CNc1ccn(-c2ccnc3c2cc(CN2CC=C(c4c(C)cc(C(=O)N(C)C)cc4F)CC2)n3C)c(=O)n1 [Example 1m88, 3-fluoro-N,N,5-trimethyl-4-(1-((1-methyl-4-(4-(methylamino)-2-oxopyrimidin-1 (2H)-yl)-1H-pyrrolo[2,3-b]pyridin-2-yl)methyl)-1,2,3,6-tetrahydropyridin-4-yl)benzamide] was tested, and the pEC50 was 8.32. With CN(C)C(=O)c1ccc(C2=CCN(Cc3cc4c(-n5ccc6c(c5=O)CCN6)ccnc4n3C)CC2)c(C2CC2)c1 [Example 1m113, cyclopropyl-N-dimethyl-4-(1-((1-methyl-4-(4-oxo-1,2,3,4-tetrahydro-5H-pyrrolo[3,2-c]pyridin-5-yl)-1H-pyrrolo[2,3-b]pyridin-2-yl)methyl)-1,2,3,6-tetrahydropyridin-4-yl)benzamide] the pEC50 was 7.52. With CN(C)C(=O)c1cc(F)c(C2CCN(Cc3cc4c(-n5cc(F)c(N)c(F)c5=O)ccnc4n3C)CC2)c(F)c1 [Example 1m119, 4-(1-((4-(4-amino-3,5-difluoro-2-oxopyridin-1 (2H)-yl)-1-methyl-1H-pyrrolo[2,3-b]pyridin-2-yl)methyl)piperidin-4-yl)-3,5-difluoro-N,N-dimethylbenzamide] the pEC50 was 7.44. Work on Cc1cc(C(=O)N(C)C)ccc1C1=CCN([C@@H](C)c2cc3c(-n4ccc(N)c(F)c4=O)ccnc3n2C)CC1 [Example 1m84, (S)-4-(1-(1-(4-(4-amino-3-fluoro-2-oxopyridin-1 (2H)-yl)-1-methyl-1H-pyrrolo[2,3-b]pyridin-2-yl)ethyl)-1,2,3,6-tetrahydropyridin-4-yl)-N,N,3-trimethylbenzamide] yielded a pEC50 of 8.43. For [2H]C([2H])([2H])N(C(=O)c1cc(F)c(C2=CCN(Cc3cc4c(-n5ccc(NC)cc5=O)ccnc4n3C)CC2)c(F)c1)C([2H])([2H])[2H] [Example 1m98, 3,5-difluoro-N,N-bis(methyl-d3)-4-(1-((1-methyl-4-(4-(methylamino)-2-oxopyridin-1 (2H)-yl)-1H-pyrrolo[2,3-b]pyridin-2-yl)methyl)-1,2,3,6-tetrahydropyridin-4-yl)benzamide], the pEC50 was 7.65. Compound CNc1ccn(-c2ccnc3c2cc([C@@H](C)N2CC=C(c4c(C)cc(C(=O)N(C)C)nc4C)CC2)n3C)c(=O)c1 (single isomer, unassigned) [Example 1m100] has a pEC50 of 6.36. In the case of Cc1cc(C(=O)N(C)C)cc(F)c1C1=CCN(Cc2cc3c(-n4ccc(N)cc4=O)ccnc3n2C)CC1 [Example 1ad6, 4-[1-[[4-(4-Amino-2-oxo-1-pyridyl)-1-methyl-pyrrolo[2,3-b]pyridin-2-yl]methyl]-3,6-dihydro-2H-pyridin-4-yl]-3-fluoro-N,N,5-trimethyl-benzamide], the pEC50 was 8.22. In the case of CNc1ccn(-c2ccnc3c2cc(CN2CCC(c4c(F)cc(C(=O)N(C)C)cc4F)CC2)n3C)c(=O)c1F [Example 1m116, 3,5-difluoro-4-(1-((4-(3-fluoro-4-(methylamino)-2-oxopyridin-1 (2H)-yl)-1-methyl-1H-pyrrolo[2,3-b]pyridin-2-yl)methyl)piperidin-4-yl)-N,N-dimethylbenzamide], the pEC50 was 6.64. For CNc1ccn(-c2ccnc3c2cc([C@H](C)N2CC=C(c4c(C)cc(C(=O)N(C)C)cc4F)CC2)n3C)c(=O)c1F [Example 1m125, (S)-3-fluoro-4-(1-(1-(4-(3-fluoro-4-(methylamino)-2-oxopyridin-1 (2H)-yl)-1-methyl-1H-pyrrolo[2,3-b]pyridin-2-yl)ethyl)-1,2,3,6-tetrahydropyridin-4-yl)-N,N,5-trimethylbenzamide], the pEC50 was 7.60. With C[C@H](c1cc2c(-n3ccc4c(c3=O)CCN4)ccnc2n1C)N1CCC(c2c(F)cc(C(=O)N(C)C)cc2F)CC1 [Example 1m127, (R)-3,5-difluoro-N,N-dimethyl-4-(1-(1-(1-methyl-4-(4-oxo-1,2,3,4-tetrahydro-5H-pyrrolo[3,2-c]pyridin-5-yl)-1H-pyrrolo[2,3-b]pyridin-2-yl)ethyl)piperidin-4-yl)benzamide] the pEC50 was 7.31. In the case of CNc1cc(=O)n(-c2ccnc3c2cc([C@@H](C)N2CCC(c4c(C)cc(C(=O)N(C)C)cc4F)CC2)n3C)cc1F [Example 1m130, (R)-3-fluoro-4-(1-(1-(4-(5-fluoro-4-(methylamino)-2-oxopyridin-1 (2H)-yl)-1-methyl-1H-pyrrolo[2,3-b]pyridin-2-yl)ethyl)piperidin-4-yl)-N,N,5-trimethylbenzamide], the pEC50 was 7.65.
